Measurements: US8309577B2, “Quinuclidine compounds as α-7 nicotinic acetylcholine receptor ligands” (Bristol-Myers Squibb Company, priority 2008, dated 2012)

These compounds were tested against T1, α-7 nicotinic acetylcholine receptor channel expressed in HEK 293 cells (Rattus norvegicus, UniProt Q05941) (assay: Ca2+-sensitive fluorescence-based FLIPR assay, α7 nicotinic ACh receptor channel function (agonist)). Details: not given.
T1 construct: expressed in transfected cells
Assay type: cell-based
How it was run: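 Potency and efficacy derived from kinetic FLIPR Ca²⁺-flux fluorescence, recorded 3 min after compound addition in Hanks buffer following a 10 s baseline.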

T1 sequence (Q05941 23-502): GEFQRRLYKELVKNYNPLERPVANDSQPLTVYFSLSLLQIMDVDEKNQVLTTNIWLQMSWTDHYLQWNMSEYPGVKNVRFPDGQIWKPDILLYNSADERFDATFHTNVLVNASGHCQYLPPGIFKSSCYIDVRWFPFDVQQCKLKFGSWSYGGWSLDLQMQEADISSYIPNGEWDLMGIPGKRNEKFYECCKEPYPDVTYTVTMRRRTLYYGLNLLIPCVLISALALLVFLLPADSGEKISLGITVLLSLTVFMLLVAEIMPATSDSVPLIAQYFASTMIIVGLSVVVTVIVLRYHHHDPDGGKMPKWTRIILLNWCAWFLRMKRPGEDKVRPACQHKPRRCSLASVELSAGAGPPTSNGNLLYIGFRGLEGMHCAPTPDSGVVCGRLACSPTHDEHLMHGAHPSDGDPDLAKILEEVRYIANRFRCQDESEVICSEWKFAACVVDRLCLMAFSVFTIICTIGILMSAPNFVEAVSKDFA

Row | SMILES | EC50 [nM]
1 | COc1cc2cnc(NC3=NC[C@@]4(CN5CCC4CC5)O3)cc2cc1OC [Example 342, (R)—N-(6,7-dimethoxyisoquinolin-3-yl)-4H-1′-azaspiro[oxazole-5,3′-bicyclo[2.2.2]octan]-2-amine] | 1600

Same assay, conditions: FLIPR α7 (EC50, nM), Table Ib; HEK 293 cells, agonist Ca2+ flux

Row | SMILES | EC50 [nM]
2 | COc1cnc(NC2=NC[C@@]3(CN4CCC3CC4)O2)nc1Cl [Example 317, (R)—N-(4-Chloro-5-methoxypyrimidin-2-yl)-4H-1′-azaspiro[oxazole-5,3′-bicyclo[2.2.2]octan]-2-amine] | 660
3 | Cc1nc(NC2=NC[C@@]3(CN4CCC3CC4)O2)cc2cc(F)ccc12 [Example 325, (R)—N-(6-Fluoro-1-methylisoquinolin-3-yl)-4H-1′-azaspiro[oxazole-5,3′-bicyclo[2.2.2]octan]-2-amine] | 139
4 | Cc1cc2cnc(NC3=NC[C@@]4(CN5CCC4CC5)O3)cc2cc1C [Example 335, (2R)—N-(6,7-Dimethyl-3-isoquinolinyl)-4′H-spiro[4-azabicyclo[2.2.2]octane-2,5′-[1,3]oxazol]-2′-amine] | 104

Same assay, conditions: FLIPR α7 activity rating (EC50, nM), Table Ib; HEK 293 cells, agonist Ca2+ flux

Row | SMILES | EC50 [nM]
5 | Cc1cnc(NC2=NC[C@@]3(CN4CCC3CC4)O2)cc1C [Example 309, (R)—N-(4,5-Dimethylpyridin-2-yl)-4H-1′-azaspiro[oxazole-5,3′-bicyclo[2.2.2]octan]-2-amine] | < 100
6 | COc1ccc(NC2=NC[C@@]3(CN4CCC3CC4)O2)nc1 [Example 310, (R)—N-(5-Methoxypyridin-2-yl)-4H-1′-azaspiro[oxazole-5,3′-bicyclo[2.2.2]octan]-2-amine] | < 100
7 | Clc1c(NC2=NC[C@@]3(CN4CCC3CC4)O2)ncc2ccccc12 [Example 311, (R)—N-(4-Chloroisoquinolin-3-yl)-4H-1′-azaspiro[oxazole-5,3′-bicyclo[2.2.2]octan]-2-amine] | < 100
8 | Fc1c(Cl)ccc2cc(NC3=NC[C@@]4(CN5CCC4CC5)O3)ncc12 [Example 312, (R)—N-(7-Chloro-8-fluoroisoquinolin-3-yl)-4H-1′-azaspiro[oxazole-5,3′-bicyclo[2.2.2]octan]-2-amine] | < 100
9 | Cc1nc(NC2=NC[C@@]3(CN4CCC3CC4)O2)cc2ccccc12 [Example 313, (R)—N-(1-Methylisoquinolin-3-yl)-4H-1′-azaspiro[oxazole-5,3′-bicyclo[2.2.2]octan]-2-amine] | < 100
10 | Fc1ccc(-c2cc(NC3=NC[C@@]4(CN5CCC4CC5)O3)ncn2)cc1 [Example 314, (R)—N-(6-(4-Fluorophenyl)pyrimidin-4-yl)-4H-1′-azaspiro[oxazole-5,3′-bicyclo[2.2.2]octan]-2-amine] | < 100
11 | Fc1cccc(-c2cc(NC3=NC[C@@]4(CN5CCC4CC5)O3)ncn2)c1 [Example 315, (R)—N-(6-(3-Fluorophenyl)pyrimidin-4-yl)-4H-1′-azaspiro[oxazole-5,3′-bicyclo[2.2.2]octan]-2-amine] | < 100
12 | Fc1cnc(NC2=NC[C@@]3(CN4CCC3CC4)O2)nc1 [Example 316, (R)—N-(5-Fluoropyrimidin-2-yl)-4H-1′-azaspiro[oxazole-5,3′-bicyclo[2.2.2]octan]-2-amine] | < 100
13 | COc1cnc(NC2=NC[C@@]3(CN4CCC3CC4)O2)nc1Cl [Example 317, (R)—N-(4-Chloro-5-methoxypyrimidin-2-yl)-4H-1′-azaspiro[oxazole-5,3′-bicyclo[2.2.2]octan]-2-amine] | 100 to 1000
14 | Fc1cc(F)c2cnc(NC3=NC[C@@]4(CN5CCC4CC5)O3)cc2c1 [Example 318, (R)—N-(6,8-Difluoroisoquinolin-3-yl)-4H-1′-azaspiro[oxazole-5,3′-bicyclo[2.2.2]octan]-2-amine] | < 100
15 | Fc1cc2cnc(NC3=NC[C@@]4(CN5CCC4CC5)O3)cc2cc1F [Example 319, (R)—N-(6,7-Difluoroisoquinolin-3-yl)-4H-1′-azaspiro[oxazole-5,3′-bicyclo[2.2.2]octan]-2-amine] | < 100
16 | Fc1ccc(F)c2cc(NC3=NC[C@@]4(CN5CCC4CC5)O3)ncc12 [Example 320, (R)—N-(5,8-Difluoroisoquinolin-3-yl)-4H-1′-azaspiro[oxazole-5,3′-bicyclo[2.2.2]octan]-2-amine] | < 100
17 | Fc1ccc2cnc(NC3=NC[C@@]4(CN5CCC4CC5)O3)nc2c1 [Example 321, (R)—N-(7-Fluoroquinazolin-2-yl)-4H-1′-azaspiro[oxazole-5,3′-bicyclo[2.2.2]octan]-2-amine] | < 100
18 | Clc1cccc2nc(NC3=NC[C@@]4(CN5CCC4CC5)O3)ncc12 [Example 322, (R)—N-(5-Chloroquinazolin-2-yl)-4H-1′-azaspiro[oxazole-5,3′-bicyclo[2.2.2]octan]-2-amine] | < 100
19 | Fc1cccc2nc(NC3=NC[C@@]4(CN5CCC4CC5)O3)ncc12 [Example 323, (R)—N-(5-Fluoroquinazolin-2-yl)-4H-1′-azaspiro[oxazole-5,3′-bicyclo[2.2.2]octan]-2-amine] | < 100
20 | Cc1nc(NC2=NC[C@@]3(CN4CCC3CC4)O2)nc2cc(F)ccc12 [Example 324, (R)—N-(7-Fluoro-4-methylquinazolin-2-yl)-4H-1′-azaspiro[oxazole-5,3′-bicyclo[2.2.2]octan]-2-amine] | < 100
21 | Cc1nc(NC2=NC[C@@]3(CN4CCC3CC4)O2)cc2cc(F)ccc12 [Example 325, (R)—N-(6-Fluoro-1-methylisoquinolin-3-yl)-4H-1′-azaspiro[oxazole-5,3′-bicyclo[2.2.2]octan]-2-amine] | 100 to 1000
22 | Cc1nc(NC2=NC[C@@]3(CN4CCC3CC4)O2)cc2cc(Cl)ccc12 [Example 326, (R)—N-(6-Chloro-1-methylisoquinolin-3-yl)-4H-1′-azaspiro[oxazole-5,3′-bicyclo[2.2.2]octan]-2-amine] | 100 to 1000
23 | Cc1nc(NC2=NC[C@@]3(CN4CCC3CC4)O2)cc2ccc(F)cc12 [Example 327, (R)—N-(7-Fluoro-1-methylisoquinolin-3-yl)-4H-1′-azaspiro[oxazole-5,3′-bicyclo[2.2.2]octan]-2-amine] | 100 to 1000

Row | SMILES | EC50 [nM]
24 | Cc1nc(NC2=NC[C@@]3(CN4CCC3CC4)O2)cc2c(F)cc(F)cc12 [Example 328, (R)—N-(5,7-Difluoro-1-methylisoquinolin-3-yl)-4H-1′-azaspiro[oxazole-5,3′-bicyclo[2.2.2]octan]-2-amine] | 100 to 1000
25 | CSc1ccc(-c2cc(NC3=NC[C@@]4(CN5CCC4CC5)O3)ncn2)cn1 [Example 329, (R)—N-(6-(6-(Methylthio)pyridin-3-yl)pyrimidin-4-yl)-4H-1′-azaspiro[oxazole-5,3′-bicyclo[2.2.2]octan]-2-amine] | < 100
26 | Fc1ncccc1-c1cc(NC2=NC[C@@]3(CN4CCC3CC4)O2)ncn1 [Example 330, (R)—N-(6-(2-Fluoropyridin-3-yl)pyrimidin-4-yl)-4H-1′-azaspiro[oxazole-5,3′-bicyclo[2.2.2]octan]-2-amine] | < 100
27 | Fc1ccc(-c2cc(NC3=NC[C@@]4(CN5CCC4CC5)O3)ncn2)cn1 [Example 331, (R)—N-(6-(6-Fluoropyridin-3-yl)pyrimidin-4-yl)-4H-1′-azaspiro[oxazole-5,3′-bicyclo[2.2.2]octan]-2-amine] | < 100
28 | Fc1cncc(-c2cc(NC3=NC[C@@]4(CN5CCC4CC5)O3)ncn2)c1 [Example 332, (R)—N-(6-(5-Fluoropyridin-3-yl)pyrimidin-4-yl)-4H-1′-azaspiro[oxazole-5,3′-bicyclo[2.2.2]octan]-2-amine] | < 100
29 | Cn1nccc1-c1cc(NC2=NC[C@@]3(CN4CCC3CC4)O2)ncn1 [Example 333, (R)—N-(6-(1-Methyl-1H-pyrazol-5-yl)pyrimidin-4-yl)-4H-1′-azaspiro[oxazole-5,3′-bicyclo[2.2.2]octan]-2-amine] | < 100
30 | c1cnc(-c2cc(NC3=NC[C@@]4(CN5CCC4CC5)O3)ncn2)cn1 [Example 334, (R)—N-(6-(Pyrazin-2-yl)pyrimidin-4-yl)-4H-1′-azaspiro[oxazole-5,3′-bicyclo[2.2.2]octan]-2-amine] | < 100
31 | Cc1cc2cnc(NC3=NC[C@@]4(CN5CCC4CC5)O3)cc2cc1C [Example 335, (2R)—N-(6,7-Dimethyl-3-isoquinolinyl)-4′H-spiro[4-azabicyclo[2.2.2]octane-2,5′-[1,3]oxazol]-2′-amine] | 100 to 1000
32 | Cc1ccc2nc(NC3=NC[C@@]4(CN5CCC4CC5)O3)oc2c1 [Example 336, (2R)—N-(6-Methyl-1,3-benzoxazol-2-yl)-4′H-spiro[4-azabicyclo[2.2.2]octane-2,5′-[1,3]oxazol]-2′-amine] | < 100
33 | COc1ccc2nc(NC3=NC[C@@]4(CN5CCC4CC5)O3)oc2c1 [Example 337, (2R)—N-(6-Methoxy-1,3-benzoxazol-2-yl)-4′H-spiro[4-azabicyclo[2.2.2]octane-2,5′-[1,3]oxazol]-2′-amine] | 100 to 1000
34 | Clc1cccc2cnc(NC3=NC[C@@]4(CN5CCC4CC5)O3)cc12 [Example 338A, (R)—N-(5-chloroisoquinolin-3-yl)-4H-1′-azaspiro[oxazole-5,3′-bicyclo[2.2.2]octan]-2-amine] | < 100
35 | Clc1ccc2cc(NC3=NC[C@@]4(CN5CCC4CC5)O3)ncc2c1 [Example 338B, (R)—N-(7-chloroisoquinolin-3-yl)-4H-1′-azaspiro[oxazole-5,3′-bicyclo[2.2.2]octan]-2-amine] | < 100
36 | Clc1cnc2nc(NC3=NC[C@@]4(CN5CCC4CC5)O3)sc2c1 [Example 339, (R)—N-(6-Chlorothiazolo[4,5-b]pyridin-2-yl)-4H-1′-azaspiro[oxazole-5,3′-bicyclo[2.2.2]octan]-2-amine] | < 100
37 | Fc1ccc2nc(NC3=NC[C@@]4(CN5CCC4CC5)O3)sc2n1 [Example 340, (R)—N-(5-Fluorothiazolo[5,4-b]pyridin-2-yl)-4H-1′-azaspiro[oxazole-5,3′-bicyclo[2.2.2]octan]-2-amine] | < 100
38 | Cc1cnc2nc(NC3=NC[C@@]4(CN5CCC4CC5)O3)sc2n1 [Example 341, (R)—N-(6-methylthiazolo[5,4-b]pyrazin-2-yl)-4H-1′-azaspiro[oxazole-5,3′-bicyclo[2.2.2]octan]-2-amine] | < 100
39 | COc1cc2cnc(NC3=NC[C@@]4(CN5CCC4CC5)O3)cc2cc1OC [Example 342, (R)—N-(6,7-dimethoxyisoquinolin-3-yl)-4H-1′-azaspiro[oxazole-5,3′-bicyclo[2.2.2]octan]-2-amine] | 1000 to 100000
40 | c1nc(NC2=NC[C@@]3(CN4CCC3CC4)O2)cc2c1CCCC2 [Example 343, (R)—N-(5,6,7,8-Tetrahydroisoquinolin-3-yl)-4H-1′-azaspiro[oxazole-5,3′-bicyclo[2.2.2]octan]-2-amine] | < 100
41 | COc1cc2cnc(NC3=NC[C@@]4(CN5CCC4CC5)O3)cc2cc1Cl [Example 344, (R)—N-(6-Chloro-7-methoxyisoquinolin-3-yl)-4H-1′-azaspiro[oxazole-5,3′-bicyclo[2.2.2]octan]-2-amine] | < 100
42 | Fc1cccc2cnc(NC3=NC[C@@]4(CN5CCC4CC5)O3)cc12 [Example 345, (R)—N-(5-Fluoroisoquinolin-3-yl)-4H-1′-azaspiro[oxazole-5,3′-bicyclo[2.2.2]octan]-2-amine] | < 100
